# In ChEMBL document CHEMBL1157033, “Developing a complete pharmacology for AMPA receptors: a perspective on subtype-selective ligands” (Bioorg Med Chem, 2010):
# What was measured:
# [1] = target: T1, Glutamate receptor 1 (Homo sapiens, UniProt P42261); experiment: Inhibition of recombinant GluA1 receptor flip isoform expressed in Xenopus oocytes assessed as inhibition of […] uM glutamate-induced current; assay type: cell-based, Oocyte
# [2] = target: T2, Glutamate receptor AMPA 1/2 (Homo sapiens, UniProt P42261+P42262); experiment: Inhibition of recombinant GluA1A2 receptor flip isoform expressed in Xenopus oocytes assessed as inhibition of […] uM glutamate-induced current; assay type: cell-based, Oocyte
# [3] = target: T1, Glutamate receptor 1; conditions: Oocyte; at 100 µM
# [4] = target: T3, Glutamate receptor 2 (Homo sapiens, UniProt P42262); conditions: Oocyte; at 100 µM
# [5] = target: T4, Glutamate receptor 3 (Homo sapiens, UniProt P42263); conditions: Oocyte; at 100 µM
# [6] = target: T5, Glutamate receptor AMPA 1/2 (Homo sapiens) (UniProt P42262+P42261); conditions: Oocyte; at 100 µM
# [7] = target: T6, Glutamate receptor AMPA 2/3 (Homo sapiens) (UniProt P42263+P42262); conditions: Oocyte; at 100 µM
# [8] = target: T1, Glutamate receptor 1; experiment: Activity at recombinant GluA1 receptor flip isoform expressed in Xenopus oocytes assessed as potentiation of glutamate-induced current at 100 uM relative to control; assay type: cell-based; conditions: Oocyte
# [9] = target: T1, Glutamate receptor 1; experiment: Agonist activity at recombinant GluA1 receptor flip isoform expressed in Xenopus oocytes; assay type: functional, cell-based, Oocyte
# [10] = target: T1, Glutamate receptor 1; experiment: Activity at recombinant GluA1 receptor flop isoform expressed in Xenopus oocytes assessed as potentiation of glutamate-induced current at 100 uM relative to control; assay type: cell-based; conditions: Oocyte
# [11] = target: T4, Glutamate receptor 3; experiment: Activity at recombinant GluA3 receptor flip isoform expressed in Xenopus oocytes assessed as potentiation of glutamate-induced current at 100 uM relative to control; assay type: cell-based; conditions: Oocyte
# [12] = target: T5, Glutamate receptor AMPA 1/2 (Homo sapiens); experiment: Activity at recombinant GluA1A2 receptor flip isoform expressed in Xenopus oocytes assessed as potentiation of glutamate-induced current at 100 uM relative to control; assay type: cell-based; conditions: Oocyte
# [13] = target: T5, Glutamate receptor AMPA 1/2 (Homo sapiens); experiment: Activity at recombinant GluA1A2 receptor flop isoform expressed in Xenopus oocytes assessed as potentiation of glutamate-induced current at 100 uM relative to control; assay type: cell-based; conditions: Oocyte
# [14] = Activity at recombinant GluA4 receptor flip isoform expressed in Xenopus oocytes assessed as effect on 300 uM glutamate-induced current; assay type: cell-based; conditions: Oocyte
# [15] = target: T2, Glutamate receptor AMPA 1/2; experiment: Activity at recombinant GluA1A2 receptor flip isoform expressed in Xenopus oocytes assessed as effect on 300 uM glutamate-induced current; assay type: cell-based, Oocyte
# [16] = target: T2, Glutamate receptor AMPA 1/2; experiment: Activity at recombinant GluA1A2 receptor flop isoform expressed in Xenopus oocytes assessed as effect on 300 uM glutamate-induced current; assay type: cell-based, Oocyte
# [17] = Activity at recombinant GluA2A4 receptor flip isoform expressed in Xenopus oocytes assessed as effect on 300 uM glutamate-induced current; assay type: cell-based; conditions: Oocyte
# [18] = Activity at recombinant GluA2A4 receptor flop isoform expressed in Xenopus oocytes assessed as effect on 300 uM glutamate-induced current; assay type: cell-based; conditions: Oocyte
# [19] = target: T1, Glutamate receptor 1; experiment: Activity at human recombinant GluA1 receptor flip isoform expressed in HEK293 cells assessed as effect on glutamate-induced calcium flux by Fluo-4/AM staining-based fluorescence assay; assay type: cell-based
# [20] = target: T3, Glutamate receptor 2; experiment: Activity at human recombinant GluA2 receptor flip isoform expressed in HEK293 cells assessed as effect on glutamate-induced calcium flux by Fluo-4/AM staining-based fluorescence assay; assay type: cell-based
# [21] = target: T3, Glutamate receptor 2; experiment: Activity at human recombinant GluA2 receptor flop isoform expressed in HEK293 cells assessed as effect on glutamate-induced calcium flux by Fluo-4/AM staining-based fluorescence assay; assay type: cell-based
# [22] = target: T4, Glutamate receptor 3; experiment: Activity at human recombinant GluA3 receptor flip isoform expressed in HEK293 cells assessed as effect on glutamate-induced calcium flux by Fluo-4/AM staining-based fluorescence assay; assay type: cell-based
# [23] = Activity at human recombinant GluA4 receptor flip isoform expressed in HEK293 cells assessed as effect on glutamate-induced calcium flux by Fluo-4/AM staining-based fluorescence assay; assay type: cell-based
# [24] = target: T1, Glutamate receptor 1; experiment: Activity at recombinant GluA1 receptor flip isoform expressed in Xenopus oocytes co-expressing gamma2-TARP assessed as effect on 10 uM glutamate-induced current by voltage-clamp electrophysiological assay; assay type: cell-based, Oocyte
# [25] = target: T1, Glutamate receptor 1; experiment: Activity at recombinant GluA1 receptor flop isoform expressed in Xenopus oocytes co-expressing gamma2-TARP assessed as effect on 10 uM glutamate-induced current by voltage-clamp electrophysiological assay; assay type: cell-based, Oocyte
# [26] = target: T1, Glutamate receptor 1; experiment: Activity at recombinant GluA1 receptor flip isoform expressed in Xenopus oocytes assessed as potentiation of 10 uM AMPA-induced current at 100 uM relative to control; assay type: cell-based; conditions: Oocyte
# [27] = target: T1, Glutamate receptor 1; experiment: Activity at recombinant GluA1 receptor flop isoform expressed in Xenopus oocytes assessed as potentiation of 10 uM AMPA-induced current at 100 uM relative to control; assay type: cell-based; conditions: Oocyte
# [28] = target: T4, Glutamate receptor 3; experiment: Activity at recombinant GluA3 receptor flip isoform expressed in Xenopus oocytes assessed as potentiation of 10 uM AMPA-induced current at 100 uM relative to control; assay type: cell-based; conditions: Oocyte
# [29] = target: T4, Glutamate receptor 3; experiment: Activity at recombinant GluA3 receptor flop isoform expressed in Xenopus oocytes assessed as potentiation of 10 uM AMPA-induced current at 100 uM relative to control; assay type: cell-based; conditions: Oocyte
# [30] = target: T5, Glutamate receptor AMPA 1/2 (Homo sapiens); experiment: Activity at recombinant GluA1A2 receptor flop isoform expressed in Xenopus oocytes assessed as potentiation of 10 uM AMPA-induced current at 100 uM relative to control; assay type: cell-based; conditions: Oocyte
# [31] = target: T6, Glutamate receptor AMPA 2/3 (Homo sapiens); experiment: Activity at recombinant GluA2A3 receptor flop isoform expressed in Xenopus oocytes assessed as potentiation of 10 uM AMPA-induced current at 100 uM relative to control; assay type: cell-based; conditions: Oocyte
# [32] = target: T5, Glutamate receptor AMPA 1/2 (Homo sapiens); experiment: Activity at recombinant GluA1 receptor flip/GluA2 receptor flop isoform expressed in Xenopus oocytes assessed as potentiation of 10 uM AMPA-induced current at 100 uM relative to control; assay type: cell-based; conditions: Oocyte
# [33] = target: T5, Glutamate receptor AMPA 1/2 (Homo sapiens); experiment: Activity at recombinant GluA1 receptor flop/GluA2 receptor flip isoform expressed in Xenopus oocytes assessed as potentiation of 10 uM AMPA-induced current at 100 uM relative to control; assay type: cell-based; conditions: Oocyte
# [34] = target: T6, Glutamate receptor AMPA 2/3 (Homo sapiens); experiment: Activity at recombinant GluA2 receptor flop/GluA3 receptor flip isoform expressed in Xenopus oocytes assessed as potentiation of 10 uM AMPA-induced current at 100 uM relative to control; assay type: cell-based; conditions: Oocyte
# [35] = target: T6, Glutamate receptor AMPA 2/3 (Homo sapiens); experiment: Activity at recombinant GluA2 receptor flip/GluA3 receptor flop isoform expressed in Xenopus oocytes assessed as potentiation of 10 uM AMPA-induced current at 100 uM relative to control; assay type: cell-based; conditions: Oocyte
# [36] = target: Glutamate receptor 4 (Rattus norvegicus) (UniProt P19493); experiment: Activity at recombinant GluA4 receptor flip isoform expressed in Xenopus oocytes assessed as potentiation of glutamate-induced current at 100 uM relative to control; conditions: Oocyte
# [37] = target: T1, Glutamate receptor 1; experiment: Activity at recombinant GluA1 receptor flop isoform expressed in Xenopus oocytes assessed as effect of 100 uM kainate-induced current by patch clamp electrophysiological assay; assay type: cell-based, Oocyte
# [38] = target: T2, Glutamate receptor AMPA 1/2; experiment: Activity at recombinant GluA1A2 receptor flop isoform expressed in Xenopus oocytes assessed as effect of 100 uM kainate-induced current by patch clamp electrophysiological assay; assay type: cell-based, Oocyte
# [39] = target: T1, Glutamate receptor 1; assay type: cell-based, Oocyte
# [40] = target: T4, Glutamate receptor 3; experiment: Inhibition of recombinant GluA3 receptor flip isoform expressed in Xenopus oocytes assessed as inhibition of […] uM kainate-induced current by patch clamp electrophysiological assay; assay type: cell-based, Oocyte
# [41] = Inhibition of recombinant GluA4 receptor flip isoform expressed in Xenopus oocytes assessed as inhibition of […] uM kainate-induced current by patch clamp electrophysiological assay; assay type: cell-based; conditions: Oocyte
# [42] = target: T2, Glutamate receptor AMPA 1/2; assay type: cell-based, Oocyte
# [43] = target: T1, Glutamate receptor 1; assay type: cell-based, Oocyte; remark: listed apart in the source
# [44] = target: T4, Glutamate receptor 3; experiment: Inhibition of GluA3 receptor expressed in Xenopus oocytes assessed as inhibition of […] uM kainate-induced current by patch clamp electrophysiological assay; assay type: cell-based, Oocyte
# [45] = target: Glutamate receptor 4 (Homo sapiens, UniProt P48058); experiment: Inhibition of GluA4 receptor expressed in Xenopus oocytes assessed as inhibition of […] uM kainate-induced current by patch clamp electrophysiological assay; assay type: cell-based, Oocyte
# [46] = target: Glutamate receptor 1 (Rattus norvegicus, UniProt P19490); assay type: cell-based, Oocyte
# [47] = target: Glutamate receptor AMPA 1/2 (Rattus norvegicus, UniProt P19490+P19491); assay type: cell-based, Oocyte
# [48] = target: T1, Glutamate receptor 1; assay type: cell-based, Oocyte; remark: listed apart in the source
# [49] = target: T4, Glutamate receptor 3; experiment: Inhibition of recombinant GluA3 receptor flop isoform expressed in Xenopus oocytes assessed as inhibition of […] uM kainate-induced current by patch clamp electrophysiological assay; assay type: cell-based, Oocyte
# [50] = target: T4, Glutamate receptor 3; conditions: Oocyte; at 0.5 µM
# [51] = test system: Oocyte; conditions: at 0.5 µM
# [52] = target: T1, Glutamate receptor 1; experiment: Activity at recombinant GluA1 receptor flip isoform expressed in Xenopus oocytes co-expressing gamma2-TARP assessed as effect on glutamate/trichloromethiazide-induced current; assay type: cell-based, Oocyte
# [53] = target: T3, Glutamate receptor 2; experiment: Activity at recombinant GluA2 receptor flip isoform expressed in Xenopus oocytes co-expressing gamma2-TARP assessed as effect on glutamate/trichloromethiazide-induced current; assay type: cell-based, Oocyte
# [54] = target: T3, Glutamate receptor 2; experiment: Activity at human recombinant GluA2 flip isoform expressed in HEK203 cells assessed as blocked of receptor desensitization
# [55] = target: T3, Glutamate receptor 2; experiment: Activity at human recombinant GluA2 flop isoform expressed in HEK203 cells assessed as blocked of receptor desensitization
# T1 sequence (P42261 whole entry, canonical isoform): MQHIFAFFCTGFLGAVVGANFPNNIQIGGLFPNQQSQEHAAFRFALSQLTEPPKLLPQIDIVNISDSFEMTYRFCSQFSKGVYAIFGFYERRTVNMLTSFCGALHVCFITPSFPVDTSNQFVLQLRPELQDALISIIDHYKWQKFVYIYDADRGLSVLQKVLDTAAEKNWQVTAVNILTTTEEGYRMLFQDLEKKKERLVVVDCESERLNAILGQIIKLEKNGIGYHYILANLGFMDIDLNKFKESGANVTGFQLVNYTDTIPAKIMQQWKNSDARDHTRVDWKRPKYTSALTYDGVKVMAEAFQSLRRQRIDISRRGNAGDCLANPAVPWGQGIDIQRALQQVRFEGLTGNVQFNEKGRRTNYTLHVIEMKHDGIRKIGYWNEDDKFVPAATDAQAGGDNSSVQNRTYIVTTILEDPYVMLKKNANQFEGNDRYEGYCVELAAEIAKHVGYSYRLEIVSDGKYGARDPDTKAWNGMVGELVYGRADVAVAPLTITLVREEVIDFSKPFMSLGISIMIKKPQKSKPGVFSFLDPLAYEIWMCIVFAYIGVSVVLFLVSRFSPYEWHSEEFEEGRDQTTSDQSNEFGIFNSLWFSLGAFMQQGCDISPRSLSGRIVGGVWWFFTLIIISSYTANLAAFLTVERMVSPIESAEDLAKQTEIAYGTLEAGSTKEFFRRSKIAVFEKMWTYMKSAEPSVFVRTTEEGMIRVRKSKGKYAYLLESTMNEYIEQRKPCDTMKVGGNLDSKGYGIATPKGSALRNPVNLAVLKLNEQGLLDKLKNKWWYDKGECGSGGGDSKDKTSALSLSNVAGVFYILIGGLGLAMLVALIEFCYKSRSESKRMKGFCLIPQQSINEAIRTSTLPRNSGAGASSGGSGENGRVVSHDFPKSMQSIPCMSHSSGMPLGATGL
# T2 sequence (P42262 whole entry, canonical isoform): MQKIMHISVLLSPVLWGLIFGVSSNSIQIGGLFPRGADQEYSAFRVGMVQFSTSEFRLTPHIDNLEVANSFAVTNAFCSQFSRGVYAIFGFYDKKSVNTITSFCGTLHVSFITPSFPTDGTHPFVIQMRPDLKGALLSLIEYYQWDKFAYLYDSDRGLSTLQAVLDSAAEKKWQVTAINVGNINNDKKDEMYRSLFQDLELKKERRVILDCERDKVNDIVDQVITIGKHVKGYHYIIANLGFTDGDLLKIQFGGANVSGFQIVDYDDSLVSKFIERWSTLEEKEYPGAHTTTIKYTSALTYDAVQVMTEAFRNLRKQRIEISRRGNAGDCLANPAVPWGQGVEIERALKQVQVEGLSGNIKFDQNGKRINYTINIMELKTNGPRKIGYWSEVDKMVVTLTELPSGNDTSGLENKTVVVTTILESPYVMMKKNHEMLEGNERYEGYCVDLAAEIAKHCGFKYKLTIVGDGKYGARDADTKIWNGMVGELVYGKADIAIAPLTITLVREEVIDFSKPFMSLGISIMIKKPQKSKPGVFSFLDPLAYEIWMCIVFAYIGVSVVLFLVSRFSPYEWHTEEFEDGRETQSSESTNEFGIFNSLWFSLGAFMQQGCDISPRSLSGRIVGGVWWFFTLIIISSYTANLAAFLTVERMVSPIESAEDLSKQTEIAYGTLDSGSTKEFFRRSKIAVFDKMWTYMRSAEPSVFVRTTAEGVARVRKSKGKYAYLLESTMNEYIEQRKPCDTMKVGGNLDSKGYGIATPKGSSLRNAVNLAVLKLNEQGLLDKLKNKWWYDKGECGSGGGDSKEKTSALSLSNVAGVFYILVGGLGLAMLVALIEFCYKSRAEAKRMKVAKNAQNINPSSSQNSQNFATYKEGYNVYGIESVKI
# T2 sequence (P42261 whole entry, canonical isoform): as the sequence (P42261 whole entry, canonical isoform) above
# T3 sequence (P42262 whole entry): as the sequence (P42262 whole entry, canonical isoform) above
# T4 sequence (P42263 whole entry): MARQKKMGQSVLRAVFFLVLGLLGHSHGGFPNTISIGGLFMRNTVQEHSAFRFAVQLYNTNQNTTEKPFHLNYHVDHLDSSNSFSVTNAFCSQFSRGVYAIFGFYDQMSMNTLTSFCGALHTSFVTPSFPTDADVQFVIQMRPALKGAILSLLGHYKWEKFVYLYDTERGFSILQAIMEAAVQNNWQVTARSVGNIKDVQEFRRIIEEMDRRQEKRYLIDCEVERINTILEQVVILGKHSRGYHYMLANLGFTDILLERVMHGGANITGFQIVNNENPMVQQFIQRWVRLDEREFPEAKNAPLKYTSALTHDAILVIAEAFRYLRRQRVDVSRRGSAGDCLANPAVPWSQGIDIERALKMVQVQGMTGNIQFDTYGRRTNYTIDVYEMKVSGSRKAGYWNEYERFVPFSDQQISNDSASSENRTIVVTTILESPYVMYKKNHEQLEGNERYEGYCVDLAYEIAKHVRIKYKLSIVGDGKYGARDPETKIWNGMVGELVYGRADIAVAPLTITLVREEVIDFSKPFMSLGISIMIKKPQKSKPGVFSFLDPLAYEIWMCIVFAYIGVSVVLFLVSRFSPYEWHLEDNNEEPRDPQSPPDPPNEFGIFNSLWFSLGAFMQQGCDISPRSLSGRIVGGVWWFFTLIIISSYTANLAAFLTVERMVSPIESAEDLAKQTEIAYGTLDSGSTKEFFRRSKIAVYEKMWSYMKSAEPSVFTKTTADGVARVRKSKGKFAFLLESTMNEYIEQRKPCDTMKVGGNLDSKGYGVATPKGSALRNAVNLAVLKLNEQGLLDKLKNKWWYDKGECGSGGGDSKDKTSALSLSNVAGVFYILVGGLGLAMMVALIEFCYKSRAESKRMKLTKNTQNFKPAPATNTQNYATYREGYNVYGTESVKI
# Chain of Glutamate receptor 4 (P48058 whole entry): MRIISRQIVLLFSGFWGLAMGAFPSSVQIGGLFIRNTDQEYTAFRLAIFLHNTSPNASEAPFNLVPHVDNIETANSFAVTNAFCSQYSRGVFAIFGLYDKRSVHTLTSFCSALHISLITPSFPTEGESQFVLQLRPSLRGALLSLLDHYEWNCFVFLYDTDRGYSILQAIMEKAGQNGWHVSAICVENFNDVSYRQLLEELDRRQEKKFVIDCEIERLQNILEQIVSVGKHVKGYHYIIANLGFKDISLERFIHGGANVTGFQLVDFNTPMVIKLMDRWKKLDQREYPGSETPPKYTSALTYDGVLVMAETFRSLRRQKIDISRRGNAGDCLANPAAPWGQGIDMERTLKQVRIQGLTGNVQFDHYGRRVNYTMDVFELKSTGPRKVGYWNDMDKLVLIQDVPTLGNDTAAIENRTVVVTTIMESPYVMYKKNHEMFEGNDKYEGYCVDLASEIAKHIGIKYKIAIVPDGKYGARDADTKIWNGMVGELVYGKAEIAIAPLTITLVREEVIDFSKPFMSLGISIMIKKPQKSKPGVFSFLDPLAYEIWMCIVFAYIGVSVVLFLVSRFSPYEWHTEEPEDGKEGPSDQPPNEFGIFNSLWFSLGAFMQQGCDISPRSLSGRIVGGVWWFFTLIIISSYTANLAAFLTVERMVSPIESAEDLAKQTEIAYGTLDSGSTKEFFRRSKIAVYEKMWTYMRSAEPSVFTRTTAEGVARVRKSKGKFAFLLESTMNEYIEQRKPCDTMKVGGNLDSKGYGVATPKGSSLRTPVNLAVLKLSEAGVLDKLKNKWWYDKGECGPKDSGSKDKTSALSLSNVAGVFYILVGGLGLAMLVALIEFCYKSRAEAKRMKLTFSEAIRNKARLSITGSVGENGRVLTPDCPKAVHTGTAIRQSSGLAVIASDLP
# Chain of Glutamate receptor 1 (Rattus norvegicus, UniProt P19490) (P19490 whole entry): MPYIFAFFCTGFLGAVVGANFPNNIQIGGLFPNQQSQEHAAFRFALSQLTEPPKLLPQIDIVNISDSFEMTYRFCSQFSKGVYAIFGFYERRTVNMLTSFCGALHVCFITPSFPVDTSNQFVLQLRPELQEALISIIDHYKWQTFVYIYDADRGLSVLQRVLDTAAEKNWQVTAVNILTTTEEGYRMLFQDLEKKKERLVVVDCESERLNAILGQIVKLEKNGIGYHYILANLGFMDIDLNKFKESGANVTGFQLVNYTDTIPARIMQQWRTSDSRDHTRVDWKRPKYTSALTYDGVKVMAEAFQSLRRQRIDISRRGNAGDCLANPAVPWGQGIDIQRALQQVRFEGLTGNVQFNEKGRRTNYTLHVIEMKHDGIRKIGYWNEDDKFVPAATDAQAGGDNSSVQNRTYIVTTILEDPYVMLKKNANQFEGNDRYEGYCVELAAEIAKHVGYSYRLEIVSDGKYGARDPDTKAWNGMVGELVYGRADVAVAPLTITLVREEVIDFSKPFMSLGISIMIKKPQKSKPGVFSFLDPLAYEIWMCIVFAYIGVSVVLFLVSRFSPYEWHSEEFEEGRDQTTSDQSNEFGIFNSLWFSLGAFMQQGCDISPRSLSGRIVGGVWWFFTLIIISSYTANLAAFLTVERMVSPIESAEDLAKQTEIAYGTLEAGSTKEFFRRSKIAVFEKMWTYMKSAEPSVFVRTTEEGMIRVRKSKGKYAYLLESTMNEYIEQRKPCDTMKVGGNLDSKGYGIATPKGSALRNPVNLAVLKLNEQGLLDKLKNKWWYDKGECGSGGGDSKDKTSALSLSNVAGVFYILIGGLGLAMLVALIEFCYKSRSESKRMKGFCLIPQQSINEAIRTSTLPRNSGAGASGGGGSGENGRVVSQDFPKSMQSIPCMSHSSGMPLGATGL
# Chain of Glutamate receptor AMPA 1/2 (Rattus norvegicus, UniProt P19490+P19491) (P19491 whole entry): as the sequence (P42262 whole entry, canonical isoform) above, with M191T, T291A, R764G, A852P counted along it
# Chain of Glutamate receptor AMPA 1/2 (Rattus norvegicus, UniProt P19490+P19491) (P19490 whole entry): as the sequence (P19490 whole entry) above
structure (smiles),measurement,setting,value
CCCC(=O)N[C@@H](Cc1ccc(O)cc1)C(=O)NCCCCCCCNCCCCN,Ki,[1],168 nM
same,Ki,[2],1600 nM
same,inhibition,[3],100%
same,inhibition,[4],2.1%
same,inhibition,[5],100%
same,inhibition,[6],84.3%
same,inhibition,[7],2.6%
NS(=O)(=O)c1cc2c(cc1Cl)NC(C1CC3C=CC1C3)NS2(=O)=O (stereo not given) [CYCLOTHIAZIDE],fold change (FC),[8],103
same,EC50,[9],1000 nM
same,fold change (FC),[10],22
same,fold change (FC),[11],69
same,fold change (FC),[12],137
same,fold change (FC),[13],61
same,EC50,[14],5900 nM
same,EC50,[15],6600 nM
same,EC50,[16],> 76000 nM
same,EC50,[17],5000 nM
same,EC50,[18],> 91000 nM
same,EC50,[19],19800 nM
same,EC50,[20],2240 nM
same,EC50,[21],> 100000 nM
same,EC50,[22],13700 nM
same,EC50,[23],3910 nM
same,EC50,[24],2000 nM
same,EC50,[25],10000 nM
same,fold change (FC),[26],5.31
same,fold change (FC),[27],1.34
same,fold change (FC),[28],3.59
same,fold change (FC),[29],5.59
same,fold change (FC),[30],3.53
same,fold change (FC),[31],10.5
same,fold change (FC),[32],19.9
same,fold change (FC),[33],11.6
same,fold change (FC),[34],6.83
same,fold change (FC),[35],7.18
same,fold change (FC),[36],171
N=C(N)NCCC[C@H](N)C(=O)NCCCNCCCNCCCCCNC(=O)[C@H](CC(N)=O)NC(=O)Cc1ccc(O)cc1O,IC50,[37],3400 nM
same,IC50,[38],300000 nM
same,IC50,[39],350 nM
same,IC50,[40],230 nM
same,IC50,[41],430 nM
same,IC50,[42],5500 nM
same,IC50,[43],350 nM
same,IC50,[44],230 nM
same,IC50,[45],430 nM
same,IC50,[46],3400 nM
same,IC50,[47],300000 nM
NCCCNCCCCNCCC(=O)NCCCCCNC(=O)[C@H](CC(N)=O)NC(=O)Cc1ccc(O)cc1O [JORO SPIDER TOXIN 3],IC50,[48],40 nM
same,IC50,[49],30 nM
same,inhibition,[50],96%
same,inhibition,[51],82%
CNC(=O)N1N=C(c2ccc(N)cc2)c2cc3c(cc2CC1C)OCO3 (stereo not given) [GYKI-53655],EC50,[52],28000 nM
same,EC50,[53],100000 nM
CC(CNS(=O)(=O)C(C)C)C1CCC(c2ccc(C#N)cc2)CC1 (stereo not given),EC50,[54],15000 nM
same,EC50,[55],1440 nM
same,EC50,[19],5650 nM
same,EC50,[20],150 nM
same,EC50,[21],1440 nM
same,EC50,[22],1660 nM
same,EC50,[23],210 nM
